Legend:
Assay type in all cases: in vivo
[1] = tested on: barnyardgrass (Echinochloa crus-galli); experiment: Test A postemergence, barnyardgrass; settings: 0 to 100 scale
Outline: (§1)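 Post: seedlings 2–10 cm, 1–2 leaves, foliar spray. Pre: soil spray after sowing in loam/sand blend. Both formulated in non-phytotoxic solvent with surfactant; injury scored visually 0–100 after ~10 d.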

[2] = tested on: barnyardgrass (Echinochloa crus-galli); experiment: Test B flooded paddy test, barnyardgrass; settings: Flood, 250 g ai/ha, applied to paddy water, 2-leaf stage, visual evaluation after 13 to 15 d
Outline: (§2)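 Each response is a visual 0–100 rating made against untreated controls, where 0 is no effect and 100 is complete control; a dash marks no result. Compound was dosed into 3 cm paddy water over 2-leaf plants, assessed after 13 to 15 d.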

[3] = tested on: sedge, umbrella (small-flower umbrella sedge, Cyperus difformis); experiment: Test B flooded paddy test, umbrella sedge; settings: Flood, 250 g ai/ha, applied to paddy water, 2-leaf stage, visual evaluation after 13 to 15 d
Outline: as §2

[4] = tested on: ragweed (common ragweed, Ambrosia elatior); experiment: Test A postemergence, ragweed; settings: 0 to 100 scale
Outline: as §1

[5] = tested on: foxtail, giant (Setaria faberii); experiment: Test A preemergence, giant foxtail; settings: 0 to 100 scale
Outline: as §1

[6] = tested on: wheat (Triticum aestivum); experiment: Test A postemergence, wheat; settings: 0 to 100 scale
Outline: as §1

rice (Oryza sativa) = experiment: Test B flooded paddy test, rice; settings: Flood, 250 g ai/ha, applied to paddy water, 2-leaf stage, visual evaluation after 13 to 15 d
Outline: as §2

[7] = tested on: pigweed (Amaranthus retroflexus); experiment: Test A preemergence, pigweed; settings: 0 to 100 scale
Outline: as §1

kochia (Kochia scoparia) [8] = experiment: Test A postemergence, kochia; settings: 0 to 100 scale
Outline: as §1

[9] = tested on: blackgrass (Alopecurus myosuroides); experiment: Test A postemergence, blackgrass; settings: 0 to 100 scale
Outline: as §1

[10] = tested on: ragweed (common ragweed, Ambrosia elatior); experiment: Test A preemergence, ragweed; settings: 0 to 100 scale
Outline: as §1

[11] = tested on: pigweed (Amaranthus retroflexus); experiment: Test A postemergence, pigweed; settings: 0 to 100 scale
Outline: as §1

[12] = tested on: ryegrass, Italian (Lolium multiflorum); experiment: Test A postemergence, Italian ryegrass; settings: 0 to 100 scale
Outline: as §1

[13] = tested on: ryegrass, Italian (Lolium multiflorum); experiment: Test A preemergence, Italian ryegrass; settings: 0 to 100 scale
Outline: as §1

[14] = tested on: foxtail, giant (Setaria faberii); experiment: Test A postemergence, giant foxtail; settings: 0 to 100 scale
Outline: as §1

[15] = tested on: barnyardgrass (Echinochloa crus-galli); experiment: Test A preemergence, barnyardgrass; settings: 0 to 100 scale
Outline: as §1

[16] = tested on: ducksalad (Heteranthera limosa); experiment: Test B flooded paddy test, ducksalad; settings: Flood, 250 g ai/ha, applied to paddy water, 2-leaf stage, visual evaluation after 13 to 15 d
Outline: as §2

corn (Zea mays) = experiment: Test A postemergence, corn; settings: 0 to 100 scale
Outline: as §1

kochia (Kochia scoparia) [17] = experiment: Test A preemergence, kochia; settings: 0 to 100 scale
Outline: as §1

[18] = tested on: galium (catchweed bedstraw, Galium aparine); experiment: Test A postemergence, galium; settings: 0 to 100 scale
Outline: as §1

C[C@@H](Nc1ncc(C(F)(F)F)c(N)n1)C1Cc2ccccc2C1 [Compound 13, N2-[(1R)-1-(2,3-dihydro-1H-inden-2-yl)ethyl]-5-(trifluoromethyl)-2,4-pyrimidinediamine]
pest or weed control at 125 g/ha ([1]; Echinochloa crus-galli, post-emergence, 240 h, 125 g ai/ha, read-out: Plant response rating, Barnyardgrass): 30% | pest or weed control at 500 g/ha ([1]; Echinochloa crus-galli, post-emergence, 240 h, 500 g ai/ha, read-out: Plant response rating, Barnyardgrass): 60% | pest or weed control at 250 g/ha ([2]; Echinochloa crus-galli, 360 h, read-out: Plant response rating, Barnyardgrass (0 to 100 scale, 0 is no effect, 100 is complete control)): 90% | pest or weed control at 250 g/ha ([3]; Cyperus difformis, 360 h, read-out: Plant response rating, Sedge, Umbrella (0 to 100 scale, 0 is no effect, 100 is complete control)): 95% | pest or weed control at 125 g/ha ([4]; Ambrosia artemisiifolia, post-emergence, 240 h, 125 g ai/ha, read-out: Plant response rating, Ragweed): 30% | pest or weed control at 500 g/ha ([4]; Ambrosia artemisiifolia, post-emergence, 240 h, 500 g ai/ha, read-out: Plant response rating, Ragweed): 80% | Plant response rating, Foxtail, Giant ([5]; 125 g ai/ha): 100 | Plant response rating, Foxtail, Giant ([5]; 500 g ai/ha): 100 | plant injury at 125 g/ha ([6]; Triticum aestivum, post-emergence, 240 h, 125 g ai/ha, read-out: Plant response rating, Wheat): 0% | plant injury at 500 g/ha ([6]; Triticum aestivum, post-emergence, 240 h, 500 g ai/ha, read-out: Plant response rating, Wheat): 20% | plant injury at 250 g/ha (rice (Oryza sativa); Oryza sativa, 360 h, read-out: Plant response rating, Rice (0 to 100 scale, 0 is no effect, 100 is complete control)): 10% | Plant response rating, Pigweed ([7]; 125 g ai/ha): 100 | Plant response rating, Pigweed ([7]; 500 g ai/ha): 100 | pest or weed control at 125 g/ha (kochia (Kochia scoparia) [8]; Bassia scoparia, post-emergence, 240 h, 125 g ai/ha, read-out: Plant response rating, Kochia): 90% | pest or weed control at 500 g/ha (kochia (Kochia scoparia) [8]; Bassia scoparia, post-emergence, 240 h, 500 g ai/ha, read-out: Plant response rating, Kochia): 100% | pest or weed control at 125 g/ha ([9]; Alopecurus myosuroides, post-emergence, 240 h, 125 g ai/ha, read-out: Plant response rating, Blackgrass): 10% | pest or weed control at 500 g/ha ([9]; Alopecurus myosuroides, post-emergence, 240 h, 500 g ai/ha, read-out: Plant response rating, Blackgrass): 30% | Plant response rating, Ragweed ([10]; 125 g ai/ha): 100 | Plant response rating, Ragweed ([10]; 500 g ai/ha): 100 | pest or weed control at 125 g/ha ([11]; Amaranthus retroflexus, post-emergence, 240 h, 125 g ai/ha, read-out: Plant response rating, Pigweed): 100% | pest or weed control at 500 g/ha ([11]; Amaranthus retroflexus, post-emergence, 240 h, 500 g ai/ha, read-out: Plant response rating, Pigweed): 100% | pest or weed control at 125 g/ha ([12]; Lolium multiflorum, post-emergence, 240 h, 125 g ai/ha, read-out: Plant response rating, Ryegrass, Italian): 0% | pest or weed control at 500 g/ha ([12]; Lolium multiflorum, post-emergence, 240 h, 500 g ai/ha, read-out: Plant response rating, Ryegrass, Italian): 20% | Plant response rating, Ryegrass, Italian ([13]; 125 g ai/ha): 60 | Plant response rating, Ryegrass, Italian ([13]; 500 g ai/ha): 100 | pest or weed control at 125 g/ha ([14]; Setaria faberi, post-emergence, 240 h, 125 g ai/ha, read-out: Plant response rating, Foxtail, Giant): 80% | pest or weed control at 500 g/ha ([14]; Setaria faberi, post-emergence, 240 h, 500 g ai/ha, read-out: Plant response rating, Foxtail, Giant): 100% | Plant response rating, Barnyardgrass ([15]; 125 g ai/ha): 90 | Plant response rating, Barnyardgrass ([15]; 500 g ai/ha): 100 | pest or weed control at 250 g/ha ([16]; Heteranthera limosa, 360 h, read-out: Plant response rating, Ducksalad (0 to 100 scale, 0 is no effect, 100 is complete control)): 75% | Corn plant response rating (crop injury, 0 = no effect, 100 = complete kill) at 125 g/ha (corn (Zea mays); Zea mays, post-emergence, 240 h, 125 g ai/ha): 10% | Corn plant response rating (crop injury, 0 = no effect, 100 = complete kill) at 500 g/ha (corn (Zea mays); Zea mays, post-emergence, 240 h, 500 g ai/ha): 60% | Plant response rating, Kochia (kochia (Kochia scoparia) [17]; 125 g ai/ha): 100 | Plant response rating, Kochia (kochia (Kochia scoparia) [17]; 500 g ai/ha): 100 | pest or weed control at 125 g/ha ([18]; Galium, post-emergence, 240 h, 125 g ai/ha, read-out: Plant response rating, Galium): 80% | pest or weed control at 500 g/ha ([18]; Galium, post-emergence, 240 h, 500 g ai/ha, read-out: Plant response rating, Galium): 80%

Cc1ccc2cc([C@@H](C)Nc3ncc(C(F)(F)F)c(N)n3)oc2c1 [Compound 14]
Plant response rating, Barnyardgrass ([1]; 125 g ai/ha): 10 | Plant response rating, Barnyardgrass ([1]; 500 g ai/ha): 40 | Plant response rating, Barnyardgrass (0 to 100 scale, 0 is no effect, 100 is complete control) [2]: 0 | Plant response rating, Sedge, Umbrella (0 to 100 scale, 0 is no effect, 100 is complete control) [3]: 0 | Plant response rating, Ragweed ([4]; 125 g ai/ha): 0 | Plant response rating, Ragweed ([4]; 500 g ai/ha): 70 | Plant response rating, Foxtail, Giant ([5]; 125 g ai/ha): 90 | Plant response rating, Foxtail, Giant ([5]; 500 g ai/ha): 100 | Plant response rating, Wheat ([6]; 125 g ai/ha): 0 | Plant response rating, Wheat ([6]; 500 g ai/ha): 0 | Plant response rating, Rice (0 to 100 scale, 0 is no effect, 100 is complete control) (rice (Oryza sativa)): 0 | Plant response rating, Pigweed ([7]; 125 g ai/ha): 90 | Plant response rating, Pigweed ([7]; 500 g ai/ha): 100 | Plant response rating, Kochia (kochia (Kochia scoparia) [8]; 125 g ai/ha): 90 | Plant response rating, Kochia (kochia (Kochia scoparia) [8]; 500 g ai/ha): 90 | Plant response rating, Blackgrass ([9]; 125 g ai/ha): 30 | Plant response rating, Blackgrass ([9]; 500 g ai/ha): 30 | Plant response rating, Ragweed ([10]; 125 g ai/ha): 100 | Plant response rating, Ragweed ([10]; 500 g ai/ha): 100 | Plant response rating, Pigweed ([11]; 125 g ai/ha): 90 | Plant response rating, Pigweed ([11]; 500 g ai/ha): 90 | Plant response rating, Ryegrass, Italian ([12]; 125 g ai/ha): 0 | Plant response rating, Ryegrass, Italian ([12]; 500 g ai/ha): 0 | Plant response rating, Ryegrass, Italian ([13]; 125 g ai/ha): 0 | Plant response rating, Ryegrass, Italian ([13]; 500 g ai/ha): 60 | Plant response rating, Foxtail, Giant ([14]; 125 g ai/ha): 10 | Plant response rating, Foxtail, Giant ([14]; 500 g ai/ha): 90 | Plant response rating, Barnyardgrass ([15]; 125 g ai/ha): 90 | Plant response rating, Barnyardgrass ([15]; 500 g ai/ha): 100 | Plant response rating, Ducksalad (0 to 100 scale, 0 is no effect, 100 is complete control) [16]: 0 | Plant response rating, Corn (corn (Zea mays); 125 g ai/ha): 10 | Plant response rating, Corn (corn (Zea mays); 500 g ai/ha): 10 | Plant response rating, Kochia (kochia (Kochia scoparia) [17]; 125 g ai/ha): 60 | Plant response rating, Kochia (kochia (Kochia scoparia) [17]; 500 g ai/ha): 90 | Plant response rating, Galium ([18]; 125 g ai/ha): 80 | Plant response rating, Galium ([18]; 500 g ai/ha): 80
